Test system: Brassica plants comprising mutant AHAS alleles
Assay: Field trial, pre-planting treatment (0, 10, 20, 30 g a.i./ha), two locations in Canada: ERG, EST1, EST2, PPTOX, VIG1, VIG2, VIG3 scores
Type: in vivo, Brassica napus
Conditions: for establishment (EST2) score, Av / phytotoxicity (PPTOX) score, Av / vigor1 (VIG1) score, Av / vigor2 (VIG2) score, Av: AHAS1 HETO108/AHAS3 HETO104
From the text: Tests were set up and conducted to asses the growth and performance of plants comprising AHAS full knock-out alleles, and to further analyze the correlation between the presence of full knockout and missense AHAS genes in Brassica plants and plant growth and herbicide tolerance of the Brassica plants in the field. To this end, the Brassica plants identified in Example 1 and 2 were backcrossed two times with an elite parent line, and subsequently selfed twice to obtain homozygous plants (BC2S2). Plants were grown as row plots in a split plot design with three replicates (main plots=herbicide treatments, subplots=genotypes) at two locations in Canada. Treatment pre-planting was carried out on the soil about two days before sowing with a dose of 0 (treatment A), 10 (treatment B), 20 (treatment C) or 30 (treatment D) g a.i./ha of thiencarbazone methyl. Herbicide tolerance was measured by scoring for different parameters. The parameter emergence (ERG) was scored at the cotyledon stage on a scale 1-9, where 1 means late emergence and 9 means early emergence. Establishment was scored 14 days after sowing (EST1) and 21 days after sowing (EST2). Scores were from 1 to 9, where 1 is the worst establishment (least plants that emerged), and 9 is the best establishment (most plants emerged). Phytotoxicity (PPTOX) was determined after establishment. Plants were evaluated on a scale of 1 to 9, where 1=completely yellowing, 5=50% of plant is yellow and 9=no yellowing. The vigor scores (see above) were determined at 1-2 leaf stage (VIG1), 7 days after VIG1 (VIG2) and 14 days after VIG1 (VIG3). The average values (Av) and standard deviations (SD) of the scores for the different parameters are represented in Table 7a-g.
Further, the contribution of the knock-out allele to herbicide tolerance conferred by the missense allele was calculated. First, the scores were corrected for a possible effect of the growth per se, independent of herbicide treatment. To this end, the scores for treatments B, C and D were divided by the scores for treatment A for the same genotype and for the same parameter (corrected herbicide tolerance scores). Next, the effect of the knock-out allele to these corrected herbicide tolerance scores obtained by the missense allele was calculated. Therefore, the corrected herbicide tolerance scores for the missense—knock-out allele combination was divided by the corrected herbicide tolerance scores for the missense allele—wild-type combination. In case the knock-out allele has no effect on herbicide tolerance conferred by the missense allele, this ratio should be 1. In case the knock-out allele positively contributes to the herbicide tolerance conferred by the missense allele, this ratio should be higher than 1. The results for the contribution of the knock-out allele to herbicide tolerance conferred by the missense allele as calculated above are shown in table 8.

[1] = AHAS1 HETO108, AHAS3 HETO104, treatment B 10 g a.i./ha pre-planting, Location A
[2] = AHAS1 HETO108, AHAS3 HETO104, treatment B 10 g a.i./ha pre-planting, Location B
[3] = AHAS1 HETO108, AHAS3 HETO104, treatment C 20 g a.i./ha pre-planting, Location A
[4] = AHAS1 HETO108, AHAS3 HETO104, treatment C 20 g a.i./ha pre-planting, Location B
[5] = AHAS1 HETO108, AHAS3 HETO104, treatment D 30 g a.i./ha pre-planting, Location A
[6] = AHAS1 HETO108, AHAS3 HETO104, treatment D 30 g a.i./ha pre-planting, Location B
[7] = AHAS1 HETO108, AHAS3 HETO111, treatment B 10 g a.i./ha pre-planting, Location A
[8] = AHAS1 HETO108, AHAS3 HETO111, treatment B 10 g a.i./ha pre-planting, Location B
[9] = AHAS1 HETO108, AHAS3 HETO111, treatment C 20 g a.i./ha pre-planting, Location A
[10] = AHAS1 HETO108, AHAS3 HETO111, treatment C 20 g a.i./ha pre-planting, Location B
[11] = AHAS1 HETO108, AHAS3 HETO111, treatment D 30 g a.i./ha pre-planting, Location A
[12] = AHAS1 HETO108, AHAS3 HETO111, treatment D 30 g a.i./ha pre-planting, Location B
[13] = AHAS1 HETO108, AHAS3 WT (HETO108+HETO104 series), treatment B 10 g a.i./ha pre-planting, Location A
[14] = AHAS1 HETO108, AHAS3 WT (HETO108+HETO104 series), treatment B 10 g a.i./ha pre-planting, Location B
[15] = AHAS1 HETO108, AHAS3 WT (HETO108+HETO104 series), treatment C 20 g a.i./ha pre-planting, Location A
[16] = AHAS1 HETO108, AHAS3 WT (HETO108+HETO104 series), treatment C 20 g a.i./ha pre-planting, Location B
[17] = AHAS1 HETO108, AHAS3 WT (HETO108+HETO104 series), treatment D 30 g a.i./ha pre-planting, Location A
[18] = AHAS1 HETO108, AHAS3 WT (HETO108+HETO104 series), treatment D 30 g a.i./ha pre-planting, Location B
[19] = AHAS1 HETO108, AHAS3 WT (HETO108+HETO111 series), treatment B 10 g a.i./ha pre-planting, Location A
[20] = AHAS1 HETO108, AHAS3 WT (HETO108+HETO111 series), treatment B 10 g a.i./ha pre-planting, Location B
[21] = AHAS1 HETO108, AHAS3 WT (HETO108+HETO111 series), treatment C 20 g a.i./ha pre-planting, Location A
[22] = AHAS1 HETO108, AHAS3 WT (HETO108+HETO111 series), treatment C 20 g a.i./ha pre-planting, Location B
[23] = AHAS1 HETO108, AHAS3 WT (HETO108+HETO111 series), treatment D 30 g a.i./ha pre-planting, Location A
[24] = AHAS1 HETO108, AHAS3 WT (HETO108+HETO111 series), treatment D 30 g a.i./ha pre-planting, Location B
[25] = 10 g a.i./ha pre-planting (B), Location A
[26] = 10 g a.i./ha pre-planting (B), Location B
[27] = 20 g a.i./ha pre-planting (C), Location A
[28] = 20 g a.i./ha pre-planting (C), Location B

COC(=O)c1csc(C)c1S(=O)(=O)NC(=O)n1nc(OC)n(C)c1=O [thiencarbazone-methyl, methyl 4-[(4,5-dihydro-3-methoxy-4-methyl-5-oxo-1H-1,2,4-triazol-1-yl)carbonylsulfamoyl]-5-methylthiophene-3-carboxylate]
6.00: emergence (ERG) score Av [1] | establishment (EST1) score Av, 14 days after sowing [7] | establishment (EST1) score Av, 14 days after sowing [8] | establishment (EST1) score Av, 14 days after sowing [21] | phytotoxicity (PPTOX) score, Av [25] | vigor2 (VIG2) score, Av [27] | phytotoxicity (PPTOX) score, Av [28]
7.33: vigor2 (VIG2) score, Av [25]
4.33: emergence (ERG) score Av [8] | emergence (ERG) score Av [12] | emergence (ERG) score Av [14] | emergence (ERG) score Av [16] | emergence (ERG) score Av [20] | establishment (EST2) score, Av [27]
6.33: establishment (EST1) score Av, 14 days after sowing [1] | emergence (ERG) score Av [19] | establishment (EST1) score Av, 14 days after sowing [19] | establishment (EST2) score, Av [25] | vigor1 (VIG1) score, Av [25]
5.67: establishment (EST1) score Av, 14 days after sowing [10] | establishment (EST1) score Av, 14 days after sowing [22]
4.67: emergence (ERG) score Av [6] | emergence (ERG) score Av [9] | establishment (EST1) score Av, 14 days after sowing [14] | establishment (EST1) score Av, 14 days after sowing [16] | emergence (ERG) score Av [17] | establishment (EST1) score Av, 14 days after sowing [17]
5.00: establishment (EST1) score Av, 14 days after sowing [2] | emergence (ERG) score Av [4] | establishment (EST1) score Av, 14 days after sowing [4] | emergence (ERG) score Av [5] | establishment (EST1) score Av, 14 days after sowing [5] | emergence (ERG) score Av [10] | emergence (ERG) score Av [11] | emergence (ERG) score Av [15] | establishment (EST1) score Av, 14 days after sowing [15] | emergence (ERG) score Av [18] | emergence (ERG) score Av [22] | emergence (ERG) score Av [23] | establishment (EST2) score, Av [26] | vigor2 (VIG2) score, Av [26] | vigor1 (VIG1) score, Av [27] | establishment (EST2) score, Av [28] | vigor1 (VIG1) score, Av [28]
3.67: establishment (EST1) score Av, 14 days after sowing [12] | establishment (EST1) score Av, 14 days after sowing [24]
4.00: emergence (ERG) score Av [2] | emergence (ERG) score Av [3] | establishment (EST1) score Av, 14 days after sowing [3]
6.67: emergence (ERG) score Av [13] | establishment (EST1) score Av, 14 days after sowing [13]
3.33: emergence (ERG) score Av [24]
5.33: establishment (EST1) score Av, 14 days after sowing [6] | emergence (ERG) score Av [7] | establishment (EST1) score Av, 14 days after sowing [9] | establishment (EST1) score Av, 14 days after sowing [11] | establishment (EST1) score Av, 14 days after sowing [18] | establishment (EST1) score Av, 14 days after sowing [20] | emergence (ERG) score Av [21] | establishment (EST1) score Av, 14 days after sowing [23]

Reference: patent publication US20120255051A1, “HERBICIDE TOLERANT PLANTS” (priority 2009, published 2012)
